Results published in patent publication EP0801063B1, “Thiazolidinedione derivatives having antidiabetic, hypolipidaemic, antihypertensive properties, process for their preparation and pharmaceutical compositions containing them” (Dr. Reddy's Laboratories Ltd., priority 1996, dated 1997).

System: C57BL/KsJ-db/db mice
Assay: Blood sugar and triglyceride lowering in db/db mice (in vivo test)
Details: male C57BL/KsJ-db/db mice, 200 mg / kg oral gavage daily for 10 days; for Maximum reduction in RBS level in a 9 days treatment (%): random blood sugar in plasma, glucose oxidase method, relative to vehicle control
Method: Male C57BL/KsJ-db/db mice of 6 weeks age procured from the Jackson Laboratory, USA were used in the experiment. The mice were provided with standard pellets made by National Institute of Nutrition, Hyderabad, India and ad libitum water. The mice of 8 to 14 weeks age, having body weight 40 to 55 grams or more were used for testing.
The random blood sugar (RBS) values were measured by withdrawing blood (20 ul) through orbital sinus, using heparinised capillary, centrifuging the blood to obtain plasma and measuring the glucose level in the plasma by the glucose oxidase method using Stangen glucose-kit. The triglyceride levels in plasma were measured by glycerol 3 PO4 oxidase / peroxidase enzyme method using Stangen kit. Four mice in a group having 300 mg / dl or more of the blood sugar level were used for the test.
The test compounds were suspended in 2.0 % gum acacia and administered to test group at a dose of 200 mg / kg, through oral gavage daily for 10 days. The control group received the vehicle (Gum acacia 2 % 10 ml / kg). The random blood sugar levels and triglyceride levels were measured at diffirent time intervals before and after administration of test compounds. Troglitazone, (200 mg / kg daily dose) was used as a standard compound in the protocol.
The ability of reducing blood sugar level was determined as described below. The mean blood sugar values on zero day before administering the control vehicle (ZC) and treated group (TC) and the means of blood sugar values of the vehicle treated control on 3rd, 6th and 9th day and test compound treated group day control (DC) and day treated (DT).
The blood sugar lowering effect of test compound is calculated according to the following formula : Blood sugar lowering effect (%) = 1 -(DT/TC)/(DC/ZC)X 100 [formula]
The blood triglyceride (TG) lowering activity was calculated as percent reduction on the 9th day as compared to the control animal values.

| Compound | Triglyceride lowering (%) (plasma triglyceride, percent reduction on the 9th day compared to control animals) | Maximum reduction in RBS level in a 9 days treatment (%) |
| --- | --- | --- |
| Cc1c(C)c2c(c(C)c1O)CCC(C)(CN(C)CCOc1ccc(C=C3SC(=O)NC3=O)cc1)O2 (stereo not drawn) [Example 12, 5-[4-[2-[N-(6-Hydroxy-2,5,7,8-tetramethylchroman-2-ylmethyl)-N-methylamino]ethoxy]phenylmethylene]thiazolidine-2,4-dione] | 70% | 43% |
| Cc1c(C)c2c(c(C)c1O)CCC(C)(COc1ccc(CC3SC(=O)NC3=O)cc1)O2 (stereo not drawn) [Troglitazone, reference compound] | – | 26% |
